Results: patent US20250136997A1, “COMPOSITIONS FOR SEQUESTERING ISOAMYL AMINE AND METHODS OF USE THEREFOR” (University of Louisville Research Foundation, Inc., priority 2023, published 2025)

Experiments:
microglial cells [1] = experiment: FACS analysis of apoptotic bodies (ABs) in supernatants of cultured microglial cells; assay type: cell-based, mouse; conditions: microglial cells isolated from young mice
Experimental: Flow cytometry. Isolated cells were incubated with blocking solution (0.5% BSA/PBS) for 15 minutes at 4° C. For surface staining, cells were stained with various antibodies at room temperature for 1 hour and then washed with PBS. Washed cells were stained for 40 minutes at 4° C. with the appropriate fluorochrome-conjugated antibodies in PBS with 2% FBS. Data were acquired using a BD FACSCalibur flow cytometer (BD Biosciences, San Jose, CA) and analyzed using FlowJo software (Tree Star Inc., Ashland, OR). The following antibodies purchased from Biolegend were used for flow cytometry: anti-CD11b (101208), anti-CD45 (103112) and FITC Annexin V (640945). For the ABs analysis, extracellular vesicles were collected. To recognize the ABs, as described previously, size gates set based on forward scatter (FSC) were applied in combination with Annexin V staining. From these vesicles total ABs were detected using Annexin V staining events.
Isolation of apoptotic bodies. Apoptotic bodies (ABs) were isolated from culture supernatants as previously described. Briefly, cell culture medium was harvested and cells were removed by pelleting at 335×g for 10 minutes. To remove cell-debris, supernatants were centrifuged at 1,000×g for 10 minutes, followed by another centrifugation at 2,000×g for 30 minutes to pellet ABs. Pelleted ABs were resuspended and washed with PBS.

microglial cells [2] = experiment: Western blot of cleaved caspase-3 and cleaved PARP in ex vivo cultured microglial cells; assay type: cell-based, mouse
Experimental: Isolation of microglia, neuron, astrocytes, and oligodendrocytes from the brain. Mice were anaesthetized with a mixture of ketamine (16%) and xylazine (3%) by intraperitoneal injection and then sacrificed under basal conditions by transcardial perfusion with perfusion buffer (Ca^2+/Mg^2+ free HBSS containing 0.5 mM EGTA, 10 mM HEPES and 4.2 mM NaHCO3; pH 7.2). The perfused brain was removed and gently mechanically disaggregated with tweezers in dissociation buffer (HBSS containing 10 mM HEPES and 4.2 mM NaHCO3 supplemented with Type I collagenase (0.05%), Dispase II (25 mg/ml), DNase I (2.5 mg/ml), trypsin inhibitor ([…]); pH 7.5) followed by incubation at 37° C. for 1 hour. The tissue homogenate was centrifuged at 1,350×g for 5 minutes at 4° C. For the isolation of microglia, the digestion enzymes in the tissue homogenate were inactivated by addition of PBS/EDTA containing 5% fetal bovine serum (FBS) and the digested brain bits were triturated gently, passed over a 100 µm filter (Fisher Scientific) and centrifuged. […] The pellet of cells was rinsed in PBS. Any contaminating red blood cells (RBC) were lysed using RBC lysis buffer (Sigma) according to the manufacturer's instructions, rinsed twice with PBS and passed through a 40 µm filter (Fisher Scientific). Cells were then stained for CD11b and CD45 for flow cytometry analysis. The astrocytes were isolated from mouse cortices (n=10). The tissue homogenate was centrifuged at 800×g for 10 minutes at 4° C. following digestion with type II collagenase (1 mg/ml) and type I DNase (10 U/ml) in DMEM for 10 minutes. The cells pelleted by centrifugation were plated in a 100 mm culture dish coated with poly-L-ornithine (Sigma). For the isolation of oligodendrocytes, the glial cells above were cultured in specific media containing T3 and T4 (0.5 mM) as well as platelet-derived growth factor (PDGF, 10 ng/ml) to promote the growth of the different cell types. Isolated glial cells were labelled with the following antibodies against surface markers: CD11b (Biolegend, Cat #101206), CD45 (Biolegend, Cat #147710), GFAP (Biolegend, Cat #837508) and MOG (Biorbyt, Cat #orb412341-FITC). Cells positive for CD11b and CD45Med were identified as microglia. Cells positive for GFAP and negative for CD45 and CD11b were identified as astrocytes. Cells sorted with MOG+CD11b− were identified as oligodendrocytes. Neurons were isolated from mouse brain using the Pierce Primary Neuron Isolation Kit (Thermo Scientific, Cat #88280). Briefly, the tissue homogenate from freshly dissected cortexes was suspended in an equal volume of ice cold HBSS (Sigma) and replaced with Neuronal Isolation Enzyme (with papain) in a 37° C. incubator for 30 minutes. After washing with HBSS, the tissue was cultured in a poly-D-lysine coated plate with Neuronal Culture Medium.
Western blotting. Cells were treated as indicated in individual Figure legends and whole cell extracts (WCE) were prepared in the radioimmunoprecipitation assay (RIPA) buffer (Sigma) with addition of protease and phosphatase inhibitors (Roche). Proteins were separated by 10% SDS-PAGE and transferred to polyvinylidene difluoride (PVDF) membranes (Bio-Rad Laboratories, Inc., Hercules, CA). Dual color precision protein MW markers (BioRad) were separated in parallel. Antibodies were purchased as follows: cleaved-caspase-3 (ab214430), cleaved PARP (ab203467) and GAPDH (ab9657, Abcam) from Abcam; S100A8 (47310) and S100a9 (72590) from Cell Signaling; and Ltf (GTX81085) from GeneTex. The secondary antibodies conjugated to Fluors Alex-488 (A32723) or Alex-594 (A11012) were purchased from Invitrogen (Eugene, OR). The bands were visualized on the Odyssey Imager (LiCor Inc, Lincoln, NE).

[3] = Interaction of S100p1-G and metabolite: streptavidin pull-down from BV2 cells and LC-MS; assay type: cell-based, mouse; conditions: cell lysates
Experimental: Interaction of S100p1-G and metabolite. Microglial BV2 cells (2×10^6) were transfected with biotinylated oligo S100p1-G or mutant using Lipofectamin RNAiMAX Reagent (Thermo Fisher) according to the manufacturer's instructions overnight at 37° C. […] of aged mouse fecal supernatant (from one-gram feces) was added into the cell growth medium. After six hours, the cells were collected in RIPA lysis buffer. […] of cell lysate was incubated with […] of DYNABEADS® Streptavidin beads (Thermo Fisher) at room temperature for 1 h. The bio-oligo complex was eluted with biotin (4 mg/ml)) in 25 mM Tris-HCL containing 0.3 M NaCl (PH 8.5) at 95° C. for 5 minutes. Metabolite analysis was performed with LC-MS.

[4] = HPLC analysis of IAA and CA in serum and cerebrospinal fluid (CSF) of mice; assay type: in vivo, mouse; conditions: aged mice, intravenous oligo, twice a week for 2 months
[5] = Morris water maze (MWM) test; assay type: in vivo, mouse; conditions: aged mice, intravenous, twice a week for 2 months
Experimental: Morris water maze (MWM) test. Mice were trained in a 122 cm diameter, 50 cm height open-field water maze with non-reflective interior surfaces. The pool water was filled with water maintained at 25±1° C. and mixed with non-toxic white tempera paint. Distinctive and extra-maze cues were marked on the wall at specific locations and were visible to the mice in the maze. Mice were removed from cages, placed into the water from quasi-random start points and allowed a maximum of 60 seconds to probe the escape platform. The inter interval of each trail remained for 15 seconds. For four consecutive days, four trials (training) were recorded each day with a final test on day 5 (FIG. 4A). Performance was evaluated by the mean escape latencies base on every training trial (Vorhees and Williams, 2006).

[6] = Surface plasmon resonance (SPR) of biotin-labeled oligos with IAA; assay type: binding; conditions: biotin labeled oligo on streptavidin sensor chip
Experimental: Surface plasmon resonance (SPR). To identify the binding activity of the metabolite IAA and S100A8 promoter sequence, SPR experiments were conducted on an OPENSPR™ (Nicoya, Lifesciences, CA). Experiments were performed on a streptavidin sensor (Nicoya, Lifesciences). SPR was run at a flow rate of 20 μl/min using HBS running buffer (20 mM HEPES, 150 mM NaCl, pH 7.4). First, the streptavidin sensor chip was cleaned with octyl β-D-glucopyranoside (40 mM) and CHAPS (20 mM). 200 μl of biotin-conjugated oligos (1 μg/ml, Table 5) were injected on the sensor chip for 10 minutes until a stable resonance was obtained. After immobilization of bio-oligo, the surface was blocked with BSA (3%) in running buffer. After a stable signal was obtained, IAA (10 nM) was run over the immobilized bio-oligo until a stable resonance was obtained. A negative control test was also performed by injecting IAA onto a blank sensor chip to check for non-specific binding. The sensograms were analyzed using TraceDrawer kinetic analysis software.

[7] = Single-strand gel shift (SSGS) assay; assay type: binding; conditions: oligos (2 μM) incubated with IAA (10 μM), 15% PAGE
Experimental: Single-strand gel shift (SSGS) assay. To identify the metabolite binding site of S100A8, we synthesized a series of oligonucleotides (oligos) (Eurofins Genomics LLC, KY) specific to the response putative IAA binding site at the promoter region of S100A8. The oligos ([…]) were incubated with […] of IAA at 37° C. for 30 minutes following electrophoresis on a 15% native PAGE without SDS in 0.5×TBE buffer. The oligos were stained with ethidium bromide ([…]) and visualized under ultraviolet (UV) light.
Given induction of bacterial metabolite IAA causes the degeneration of microglia by elevation of S100A8 at both the transcription and protein level, we hypothesized that IAA might directly target the promoter of S100A8 and regulate the expression of S100A8. Studying the interaction of metabolites, particularly small molecules, with nucleic acid is challenging due to a lack of appropriate tags for the metabolites. Because of this challenge, we developed a strategy raising the possibility to investigate the interaction of small molecules and nucleic acid.
To test our hypothesis, we first synthesized short single-DNA strains (around 60 mer length each) whose sequences spanned the promoter of S100A8 (FIG. 13A and Table 5). The site and sequence of the promoter and transcription start site (TSS) were determined according to the entire mRNA (Accession #NC_000069.7 (90,576,378 . . . 90,577,341)) and genomic sequence (Accession #L76381) from the NCBI nucleic acid database (FIG. 13A). These DNA oligos (2 μM) were incubated with IAA (10 μM) following native PAGE analysis (FIG. 4A). […] To define the accurate binding site of IAA, we synthesized 10 mer length DNA oligos covering the sequence of S100p1 (Table 5). Unfortunately, the 10 mer length oligo lost the conformational mobility shift in PAGE (FIG. 13C). We then tested the mobility shift with 20 mer oligos. […]

[8] = added to ex vivo cultured microglial cells from young mice

Compound: C/C=C/C(=O)O [CA, crotonic acid]
- ABs released into the culture supernatants (microglial cells [1]): increase
- effect on the microglia (cleaved caspase-3) (microglial cells [2]; S100A8 deficient microglia cells): abolished
- cleaved caspase-3 (microglial cells [2]; [8]): increasing
- cleaved poly(-ADP-ribose) polymerase (PARP) (microglial cells [2]; [8]): increasing

Compound: NCCCC(=O)O [GABA]
- metabolite within the Bio-S100p1-G complex (LC-MS) [3]: did not find

Compound: NCCCC[C@H](N)C(=O)O [lysine]
- metabolite within the Bio-S100p1-G complex (LC-MS) [3]: did not find

Compound: S100p1-G-Mut: CTGTATGCAA TTGGCCAAGC (SEQ ID NO: 9), mutant control oligo (DNA CTGTATGCAATTGGCCAAGC; DNA, backbone and methylation of C not given here; further chemistry not fully specified)
- IAA in CSF (HPLC) [4]: not seen
- memory and spatial learning (MWM) [5]: not seen

Compound: S100p1: CTGTGGGCAG CTGGCAAGC TTTCCTCTATAAAAGCAGCTGACACTTAGCCTCACAT (SEQ ID NO: 7), −57 . . . −1 (DNA CTGTGGGCAGCTGGCCAAGCTTTCCTCTATAAAAGCAGCTGACACTTAGCCTCACAT; DNA, backbone and methylation of C not given here; further chemistry not fully specified)
- interaction with IAA (SPR) [6]: targeted by IAA
- mobility shift on native PAGE after incubation with IAA [7]: mobility shifted

Compound: hS100A8p: AGCTGTGGGCAGCTGGCCAAGCCTAA (SEQ ID NO: 39), human S100A8 promoter oligo (DNA, backbone and methylation of C not given here; further chemistry not fully specified)
- mobility shift on native PAGE after incubation with IAA [7]: binds
